In patent publication US20160176880A1, “SUBSTITUTED IMIDAZO[1,2-A]PYRAZINECARBOXAMIDES AND USE THEREOF” (BAYER PHARMA AKTIENGESELLSCHAFT, priority 2013, published 2016):

These compounds were tested against T1, recombinant guanylate cyclase reporter cell line (Rattus norvegicus, UniProt P19686+P20595) (assay: Effect on a recombinant guanylate cyclase reporter cell line). Details: MEC = minimum effective concentration; in some cases mean values for individual determinations.
T1 construct: expressed in transfected cells
T1 sequence (P19686 1-690): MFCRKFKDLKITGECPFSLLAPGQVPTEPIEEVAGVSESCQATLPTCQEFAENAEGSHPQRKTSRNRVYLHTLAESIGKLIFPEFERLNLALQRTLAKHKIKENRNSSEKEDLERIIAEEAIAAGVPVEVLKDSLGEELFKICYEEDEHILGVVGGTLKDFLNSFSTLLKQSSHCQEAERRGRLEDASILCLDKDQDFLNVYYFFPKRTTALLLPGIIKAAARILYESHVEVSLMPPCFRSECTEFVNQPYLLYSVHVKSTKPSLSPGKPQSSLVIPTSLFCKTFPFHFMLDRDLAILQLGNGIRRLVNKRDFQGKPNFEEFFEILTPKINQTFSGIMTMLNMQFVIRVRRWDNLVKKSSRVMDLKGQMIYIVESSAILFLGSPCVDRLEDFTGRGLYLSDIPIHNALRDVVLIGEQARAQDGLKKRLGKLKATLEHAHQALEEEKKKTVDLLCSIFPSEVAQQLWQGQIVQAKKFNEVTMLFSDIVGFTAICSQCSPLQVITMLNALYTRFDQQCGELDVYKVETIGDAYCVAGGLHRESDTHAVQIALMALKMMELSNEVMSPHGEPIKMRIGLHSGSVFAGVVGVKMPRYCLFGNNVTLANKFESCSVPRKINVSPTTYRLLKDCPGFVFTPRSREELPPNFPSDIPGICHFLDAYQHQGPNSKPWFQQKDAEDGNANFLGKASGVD
T1 sequence (P20595 1-619): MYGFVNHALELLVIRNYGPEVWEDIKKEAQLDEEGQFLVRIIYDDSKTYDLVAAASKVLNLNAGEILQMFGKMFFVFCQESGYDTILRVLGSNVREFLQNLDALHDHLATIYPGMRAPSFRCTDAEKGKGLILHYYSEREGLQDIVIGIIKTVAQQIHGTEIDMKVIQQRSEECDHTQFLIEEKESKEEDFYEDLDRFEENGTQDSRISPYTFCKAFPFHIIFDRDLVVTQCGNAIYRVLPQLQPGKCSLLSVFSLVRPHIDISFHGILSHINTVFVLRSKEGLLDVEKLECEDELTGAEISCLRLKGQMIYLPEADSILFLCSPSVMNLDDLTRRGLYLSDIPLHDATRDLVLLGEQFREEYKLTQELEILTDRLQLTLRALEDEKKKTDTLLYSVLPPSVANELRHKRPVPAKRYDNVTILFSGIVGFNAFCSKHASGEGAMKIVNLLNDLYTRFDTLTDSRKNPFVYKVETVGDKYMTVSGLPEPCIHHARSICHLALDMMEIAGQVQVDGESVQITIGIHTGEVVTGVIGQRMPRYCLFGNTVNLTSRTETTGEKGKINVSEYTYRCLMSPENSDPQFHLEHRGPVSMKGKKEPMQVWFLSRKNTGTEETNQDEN
Format: cell-based
Protocol: B-2. Effect on a Recombinant Guanylate Cyclase Reporter Cell Line
The cellular action of the compounds of the invention is determined using a recombinant guanylate cyclase reporter cell line, as described in F. Wunder et al., Anal. Biochem. 339, 104-112 (2005).
Representative MEC values (MEC=minimum effective concentration) for the compounds of the invention are shown in the table below (in some cases as mean values for individual determinations): […]

| MEC | SMILES |
| --- | --- |
| 0.3 µM | Cc1cn2c(C(=O)NCC(C)(N)CCC(F)(F)F)c(C)nc2c(OCc2c(F)cccc2F)n1 (single isomer, unassigned; enantiomer b) [Example 38, ent-N-(2-Amino-5,5,5-trifluoro-2-methylpentyl)-8-[(2,6-difluorobenzyl)oxy]-2,6-dimethylimidazo[1,2-a]pyrazine-3-carboxamide (enantiomer B)] |
| 0.2 µM | CCCC(C)(N)CNC(=O)c1c(C)nc2c(OCc3c(F)cccc3F)nc(C)cn12 (single isomer, unassigned; enantiomer b) [Example 39, ent-N-(2-Amino-2-methylpentyl)-8-[(2,6-difluorobenzyl)oxy]-2,6-dimethylimidazo[1,2-a]pyrazine-3-carboxamide (enantiomer B)] |
| 0.3 µM | Cc1cn2c(C(=O)NCC(C)(N)CCCF)c(C)nc2c(OCc2c(F)cccc2F)n1 (single isomer, unassigned; enantiomer b) [Example 40, ent-N-(2-Amino-5-fluoro-2-methylpentyl)-8-[(2,6-difluorobenzyl)oxy]-2,6-dimethylimidazo[1,2-a]pyrazine-3-carboxamide (enantiomer B)] |
| 0.3 µM | Cc1cn2c(C(=O)NCC(C)(N)CC(F)F)c(C)nc2c(OCc2c(F)cccc2F)n1 (single isomer, unassigned; enantiomer b) [Example 42, ent-N-(2-Amino-4,4-difluoro-2-methylbutyl)-8-[(2,6-difluorobenzyl)oxy]-2,6-dimethylimidazo[1,2-a]pyrazine-3-carboxamide (enantiomer B)] |
| 3 µM | Cc1cn2c(C(=O)NC(CCCC(F)(F)F)C(C)(C)O)c(C)nc2c(OCc2c(F)cccc2F)n1 (single isomer, unassigned; ent-8) [Example 6, ent-8[(2,6-Difluorobenzyl)oxy]-2,6-dimethyl-N-(7,7,7-trifluoro-2-hydroxy-2-methylheptan-3-yl)imidazo[1,2-a]pyrazine-3-carboxamide] |
| 0.3 µM | CCCCC(NC(=O)c1c(C)nc2c(OCc3c(F)cccc3F)nc(C)cn12)C(C)(C)O (single isomer, unassigned; ent-8) [Example 7, ent-8[(2,6-Difluorobenzyl)oxy]-N-(2-hydroxy-2-methylheptan-3-yl)-2,6-dimethylimidazo[1,2-a]pyrazine-3-carboxamide] |
| 1 µM | Cc1cn2c(C(=O)NC(CCC(F)(F)C(F)(F)F)C(C)(C)O)c(C)nc2c(OCc2c(F)cccc2F)n1 (single isomer, unassigned; ent-8) [Example 29, ent-8-[(2,6-difluorobenzyl)oxy]-2,6-dimethyl-N-(6,6,7,7,7-pentafluoro-2-hydroxy-2-methylheptan-3-yl)imidazo[1,2-a]pyrazine-3-carboxamide] |
| 0.77 µM | CC[C@](C)(N)CNC(=O)c1c(C)nc2c(OCc3c(F)cccc3F)nc(C)cn12 [Example 1, ent-N-[(2S)-2-Amino-2-methylbutyl]-8-[(2,6-difluorobenzyl)oxy]-2,6-dimethylimidazo[1,2-a]pyrazine-3-carboxamide] |
| 1 µM | CCCC[C@H](C)NC(=O)c1c(C)nc2c(OCc3c(F)cccc3F)nc(C)cn12 [Example 2, 8-[(2,6-Difluorobenzyl)oxy]-N-[(2S)-hexan-2-yl]-2,6-dimethylimidazo[1,2-a]pyrazine-3-carboxamide] |
| 3 µM | CCCC[C@H](CO)NC(=O)c1c(C)nc2c(OCc3c(F)cccc3F)nc(C)cn12 [Example 3, 8-[(2,6-Difluorobenzyl)oxy]-N-[(2R)-1-hydroxyhexan-2-yl]-2,6-dimethylimidazo[1,2-a]pyrazine-3-carboxamide] |
| 1 µM | Cc1cn2c(C(=O)NC3(c4ccc(F)c(F)c4)CC3)c(C)nc2c(OCc2c(F)cccc2F)n1 [Example 4, 8-[(2,6-Difluorobenzyl)oxy]-N-[1-(3,4-difluorophenyl)cyclopropyl]-2,6-dimethylimidazo[1,2-a]pyrazine-3-carboxamide] |
